Drawing on PubChem BioAssay AID254 (DTP/NCI, 2004), this text covers T/C for six molecules.

This assay has as its system L1210 leukemia iv in BDF1 mice, survival T/C. As to the kind of experiment: NCI In Vivo Anticancer Drug Screen. Data for tumor model L1210 Leukemia (intravenous) in B6D2F1 (BDF1) mice. As to conditions: higher = longer survival. The protocol:
The antitumor activity of compounds was measured in mice bearing transplantable tumors. Survival or tumor size were measured and the results are expressed as the measurement made in the treated group (T) divided by the measurement made in the vehicle treated control group (C). The tumor model used in this assay is L1210 Leukemia (intravenous) in B6D2F1 (BDF1) mice

Several values for one entry are separate records, joined by “and”; a condition that tells them apart may be missing. Equal entries are not always repeated. Toxic doses and inconclusive results are not listed.

Turning to `COc1cccc2c1C(=O)c1c(O)c3c(c(O)c1C2=O)C[C@@](O)(C(C)=O)C[C@@H]3OC1CC(N)C(O)C(C)O1` (some centres undefined), the T/C is, setting by setting: (endpoint: mean survival time, dose: 3.0 mg/kg/injection, schedule: Q04DX003 (iv), vehicle: water) 216 % of control; (endpoint: mean survival time, dose: 5.0 mg/kg/injection, schedule: Q01DX001 (iv), vehicle: saline) 105 % of control; (endpoint: mean survival time, dose: 5.0 mg/kg/injection, schedule: Q04DX003 (iv), vehicle: water) 121 % of control; (endpoint: mean survival time, dose: 10.0 mg/kg/injection, schedule: Q01DX001 (iv), vehicle: saline) 115 % of control; (endpoint: mean survival time, dose: 14.0 mg/kg/injection, schedule: Q04DX003 (iv), vehicle: water) 160 % of control; (endpoint: mean survival time, dose: 20.0 mg/kg/injection, schedule: Q01DX001 (iv), vehicle: saline) 150 % of control. Moreover, the T/C (endpoint: mean survival time, dose: 23.0 mg/kg/injection, schedule: Q04DX003 (iv), vehicle: water) was 84 % of control.

Take `O=NN(CCCl)C(=O)NC1CCC(=O)NC1=O` (centres undefined): the T/C is, setting by setting: (endpoint: mean survival time, dose: 4.0 mg/kg/injection, schedule: Q01DX001 (ip), vehicle: other) 162 % of control and 175 % of control; (endpoint: mean survival time, dose: 8.0 mg/kg/injection, schedule: Q01DX001 (ip), vehicle: other) 244 % of control and 260 % of control; (endpoint: mean survival time, dose: 17.0 mg/kg/injection, schedule: Q01DX001 (ip), vehicle: other) 380 % of control and 428 % of control; (endpoint: mean survival time, dose: 35.0 mg/kg/injection, schedule: Q01DX001 (ip), vehicle: other) 395 % of control and 570 % of control.

As for `Nc1nc(=S)c2[nH]cnc2[nH]1`, the T/C is, setting by setting: (endpoint: mean survival time, dose: 0.4 mg/kg/injection, schedule: Q01DX008 (ip), vehicle: alkali diluted with saline) 107 % of control; (endpoint: mean survival time, dose: 0.4 mg/kg/injection, schedule: Q06HX008 (ip), vehicle: alkali diluted with saline) 117 % of control; (endpoint: mean survival time, dose: 0.4 mg/kg/injection, schedule: Q12HX008 (ip), vehicle: alkali diluted with saline) 114 % of control; (endpoint: mean survival time, dose: 0.6 mg/kg/injection, schedule: Q01DX008 (ip), vehicle: alkali diluted with saline) 114 % of control; (endpoint: mean survival time, dose: 0.6 mg/kg/injection, schedule: Q01HX008 (ip), vehicle: alkali diluted with saline) 152 % of control; (endpoint: mean survival time, dose: 4.8 mg/kg/injection, schedule: Q01DX001 (ip), vehicle: alkali diluted with saline) 156 % of control. Further, the T/C by setting is: (endpoint: mean survival time, dose: 115.0 mg/kg/injection, schedule: Q01DX001 (ip), vehicle: alkali diluted with saline) 195 % of control; (endpoint: median survival time, dose: 20.0 mg/kg/injection, schedule: Q04DX002 (ip), vehicle: alkali diluted with saline) 206 % of control and 227 % of control; (endpoint: median survival time, dose: 25.0 mg/kg/injection, schedule: Q04DX002 (ip), vehicle: alkali diluted with saline) 198 % of control and 231 % of control.

For `COc1cccc2c1C(=O)c1c(O)c3c(c(O)c1C2=O)CC(O)(C(=O)CO)CC3OC1CC(N)C(O)C(C)O1` (centres undefined), the T/C (endpoint: mean survival time, dose: 0.75 mg/kg/injection, schedule: Q01DX005 (iv), vehicle: saline) is 104 % of control; the T/C (endpoint: mean survival time, dose: 1.5 mg/kg/injection, schedule: Q01DX005 (iv), vehicle: saline) was 103 % of control; the T/C (endpoint: mean survival time, dose: 3.0 mg/kg/injection, schedule: Q01DX005 (iv), vehicle: saline) was 117 % of control; the T/C (endpoint: mean survival time, dose: 4.0 mg/kg/injection, schedule: Q01DX005 (iv), vehicle: saline) was 105 % of control; the T/C (endpoint: mean survival time, dose: 5.0 mg/kg/injection, schedule: Q01DX005 (iv), vehicle: saline) is 89 % of control; the T/C (endpoint: mean survival time, dose: 6.0 mg/kg/injection, schedule: Q01DX005 (iv), vehicle: saline) was 97 % of control. Further, the T/C by setting is: (endpoint: mean survival time, dose: 7.0 mg/kg/injection, schedule: Q01DX005 (iv), vehicle: saline) 96 % of control; (endpoint: mean survival time, dose: 8.0 mg/kg/injection, schedule: Q01DX005 (iv), vehicle: saline) 90 % of control.

`O=NN(CCCl)C(=O)NC1CCCCC1`: the T/C by setting is: (endpoint: mean survival time, dose: 5.1 mg/kg/injection, schedule: Q01DX001 (ip), vehicle: carboxymethylcellulose (CMC)) 102 % of control; (endpoint: mean survival time, dose: 10.0 mg/kg/injection, schedule: Q04DX004 (ip), vehicle: carboxymethylcellulose (CMC)) 124 % of control; (endpoint: mean survival time, dose: 15.0 mg/kg/injection, schedule: Q01DX001 (ip), vehicle: Klucel (hydroxypropylcellulose) (HPC)) 170 % of control; (endpoint: mean survival time, dose: 16.0 mg/kg/injection, schedule: Q04DX004 (ip), vehicle: carboxymethylcellulose (CMC)) 160 % of control; (endpoint: mean survival time, dose: 16.6 mg/kg/injection, schedule: Q01DX001 (ip), vehicle: carboxymethylcellulose (CMC)) 163 % of control and 174 % of control; (endpoint: mean survival time, dose: 17.0 mg/kg/injection, schedule: Q01DX001 (ip), vehicle: carboxymethylcellulose (CMC)) 176 % of control. Also, the T/C (endpoint: mean survival time, dose: 18.0 mg/kg/injection, schedule: Q01DX001 (ip), vehicle: Klucel (hydroxypropylcellulose) (HPC)) was 177 % of control; the T/C (endpoint: mean survival time, dose: 21.0 mg/kg/injection, schedule: Q01DX001 (ip), vehicle: carboxymethylcellulose (CMC)) is 218 % of control and 241 % of control; the T/C (endpoint: mean survival time, dose: 22.0 mg/kg/injection, schedule: Q01DX001 (ip), vehicle: Klucel (hydroxypropylcellulose) (HPC)) was 227 % of control; the T/C (endpoint: mean survival time, dose: 22.0 mg/kg/injection, schedule: Q01DX001 (ip), vehicle: carboxymethylcellulose (CMC)) was 192 % of control and 225 % of control; the T/C (endpoint: mean survival time, dose: 22.0 mg/kg/injection, schedule: Q04DX004 (ip), vehicle: carboxymethylcellulose (CMC)) is 360 % of control; the T/C (endpoint: mean survival time, dose: 27.0 mg/kg/injection, schedule: Q01DX001 (ip), vehicle: Klucel (hydroxypropylcellulose) (HPC)) was 161 % of control. The T/C is 346 % of control (endpoint: mean survival time, dose: 30.0 mg/kg/injection, schedule: Q01DX001 (ip), vehicle: carboxymethylcellulose (CMC)); 709 % of control (endpoint: mean survival time, dose: 33.0 mg/kg/injection, schedule: Q04DX004 (ip), vehicle: carboxymethylcellulose (CMC)); 574 % of control (endpoint: mean survival time, dose: 33.5 mg/kg/injection, schedule: Q01DX001 (ip), vehicle: Klucel (hydroxypropylcellulose) (HPC)); 534 % of control and 560 % of control and 606 % of control (endpoint: mean survival time, dose: 37.5 mg/kg/injection, schedule: Q01DX001 (ip), vehicle: carboxymethylcellulose (CMC)); 222 % of control (endpoint: mean survival time, dose: 40.0 mg/kg/injection, schedule: Q01DX001 (ip), vehicle: Klucel (hydroxypropylcellulose) (HPC)); 368 % of control (endpoint: mean survival time, dose: 40.0 mg/kg/injection, schedule: Q01DX001 (ip), vehicle: carboxymethylcellulose (CMC)). The T/C is 438 % of control (endpoint: mean survival time, dose: 42.0 mg/kg/injection, schedule: Q01DX001 (ip), vehicle: Klucel (hydroxypropylcellulose) (HPC)); 633 % of control and 707 % of control (endpoint: mean survival time, dose: 43.0 mg/kg/injection, schedule: Q01DX001 (ip), vehicle: carboxymethylcellulose (CMC)); 407 % of control (endpoint: mean survival time, dose: 50.0 mg/kg/injection, schedule: Q01DX001 (ip), vehicle: Klucel (hydroxypropylcellulose) (HPC)); 464 % of control (endpoint: mean survival time, dose: 56.0 mg/kg/injection, schedule: Q01DX001 (ip), vehicle: Klucel (hydroxypropylcellulose) (HPC)); 336 % of control (endpoint: mean survival time, dose: 60.0 mg/kg/injection, schedule: Q01DX001 (ip), vehicle: Klucel (hydroxypropylcellulose) (HPC)); 652 % of control and 662 % of control and 775 % of control (endpoint: mean survival time, dose: 62.5 mg/kg/injection, schedule: Q01DX001 (ip), vehicle: carboxymethylcellulose (CMC)). The T/C is, setting by setting: (endpoint: mean survival time, dose: 70.0 mg/kg/injection, schedule: Q01DX001 (ip), vehicle: Klucel (hydroxypropylcellulose) (HPC)) 519 % of control; (endpoint: mean survival time, dose: 75.0 mg/kg/injection, schedule: Q01DX001 (ip), vehicle: carboxymethylcellulose (CMC)) 826 % of control; (endpoint: mean survival time, dose: 86.0 mg/kg/injection, schedule: Q01DX001 (ip), vehicle: carboxymethylcellulose (CMC)) 242 % of control and 297 % of control; (endpoint: mean survival time, dose: 90.0 mg/kg/injection, schedule: Q01DX001 (ip), vehicle: Klucel (hydroxypropylcellulose) (HPC)) 522 % of control.

With `NC(=O)c1csc(C2OC(CO)C(O)C2O)n1` (centres undefined), the T/C is, setting by setting: (endpoint: median survival time, dose: 330.0 mg/kg/injection, schedule: Q01DX009 (ip), vehicle: water) 241 % of control; (endpoint: median survival time, dose: 500.0 mg/kg/injection, schedule: Q01DX009 (ip), vehicle: water) 265 % of control; (endpoint: median survival time, dose: 750.0 mg/kg/injection, schedule: Q01DX009 (ip), vehicle: water) 268 % of control.
